Reference: US20210070748A1, “INHIBITORS OF BRUTONS TYROSINE KINASE” (Pharmacyclics LLC, priority 2015, published 2021)

Key:
Type in all cases: biochemical
[1] = target: T1, ITK (Homo sapiens, UniProt Q08881); experiment: Inhibition of a panel of kinases, in vitro HotSpot kinase assay: ITK; conditions: D-compounds panel data; 1 μM ATP
T1 sequence (Q08881 1-620): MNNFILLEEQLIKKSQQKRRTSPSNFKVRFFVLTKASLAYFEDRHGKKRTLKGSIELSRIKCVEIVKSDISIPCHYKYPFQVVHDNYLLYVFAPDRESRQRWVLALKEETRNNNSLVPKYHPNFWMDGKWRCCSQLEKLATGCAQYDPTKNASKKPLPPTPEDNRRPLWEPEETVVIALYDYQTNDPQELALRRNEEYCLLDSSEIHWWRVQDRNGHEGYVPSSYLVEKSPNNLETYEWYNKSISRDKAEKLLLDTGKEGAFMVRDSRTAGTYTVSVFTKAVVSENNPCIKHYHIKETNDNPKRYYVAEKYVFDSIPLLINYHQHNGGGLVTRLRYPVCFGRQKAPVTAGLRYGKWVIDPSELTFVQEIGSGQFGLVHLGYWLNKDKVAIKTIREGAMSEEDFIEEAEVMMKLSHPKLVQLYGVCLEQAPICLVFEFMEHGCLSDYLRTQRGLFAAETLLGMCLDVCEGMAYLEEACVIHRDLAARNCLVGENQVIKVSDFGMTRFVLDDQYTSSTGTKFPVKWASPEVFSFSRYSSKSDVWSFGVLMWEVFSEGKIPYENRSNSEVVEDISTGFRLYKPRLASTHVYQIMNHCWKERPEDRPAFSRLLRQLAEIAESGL
Procedure: (§1) The degree of inhibition of a panel of kinases is determined using the in vitro HotSpot kinase assay (purified enzymes, ^33P-ATP, an appropriate substrate and 1 μM ATP).

[2] = target: T2, BTK-WT (Homo sapiens, UniProt Q06187); experiment: Btk in vitro inhibitory activity (one of Method A TR-FRET, Method B electrophoretic mobility shift, Method C radiometric filter binding); conditions: D-compounds panel data; read-out: IC50 BTK-WT
T2 construct: purified from insect cells as a full-length construct containing an N-terminal 6X-His tag; His6 (N); made in house; host or cells: insect cells (baculovirus Sf21 in Method B)
T2 sequence (Q06187 whole entry): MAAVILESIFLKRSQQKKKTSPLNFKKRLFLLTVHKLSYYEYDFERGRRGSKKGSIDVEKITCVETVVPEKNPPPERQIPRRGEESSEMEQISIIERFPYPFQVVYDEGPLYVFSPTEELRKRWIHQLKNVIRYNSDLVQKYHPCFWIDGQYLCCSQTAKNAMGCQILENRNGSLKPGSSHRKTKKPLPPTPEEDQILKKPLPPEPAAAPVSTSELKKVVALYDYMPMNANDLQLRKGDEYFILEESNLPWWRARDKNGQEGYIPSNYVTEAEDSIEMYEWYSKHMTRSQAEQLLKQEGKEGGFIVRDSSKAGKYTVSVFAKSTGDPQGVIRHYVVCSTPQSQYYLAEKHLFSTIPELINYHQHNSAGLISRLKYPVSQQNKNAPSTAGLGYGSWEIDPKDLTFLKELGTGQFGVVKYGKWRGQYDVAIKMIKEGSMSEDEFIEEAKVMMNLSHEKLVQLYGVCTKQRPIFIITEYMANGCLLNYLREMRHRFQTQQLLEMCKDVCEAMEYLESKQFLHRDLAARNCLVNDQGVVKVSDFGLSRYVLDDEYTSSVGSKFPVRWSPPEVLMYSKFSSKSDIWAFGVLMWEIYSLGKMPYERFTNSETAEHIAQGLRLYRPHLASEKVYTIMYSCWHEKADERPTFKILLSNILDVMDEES

[3] = target: SRC (Homo sapiens, UniProt P12931); experiment: Inhibition of a panel of kinases, in vitro HotSpot kinase assay: SRC; conditions: D-compounds panel data; 1 μM ATP
Sequence of SRC (P12931 whole entry): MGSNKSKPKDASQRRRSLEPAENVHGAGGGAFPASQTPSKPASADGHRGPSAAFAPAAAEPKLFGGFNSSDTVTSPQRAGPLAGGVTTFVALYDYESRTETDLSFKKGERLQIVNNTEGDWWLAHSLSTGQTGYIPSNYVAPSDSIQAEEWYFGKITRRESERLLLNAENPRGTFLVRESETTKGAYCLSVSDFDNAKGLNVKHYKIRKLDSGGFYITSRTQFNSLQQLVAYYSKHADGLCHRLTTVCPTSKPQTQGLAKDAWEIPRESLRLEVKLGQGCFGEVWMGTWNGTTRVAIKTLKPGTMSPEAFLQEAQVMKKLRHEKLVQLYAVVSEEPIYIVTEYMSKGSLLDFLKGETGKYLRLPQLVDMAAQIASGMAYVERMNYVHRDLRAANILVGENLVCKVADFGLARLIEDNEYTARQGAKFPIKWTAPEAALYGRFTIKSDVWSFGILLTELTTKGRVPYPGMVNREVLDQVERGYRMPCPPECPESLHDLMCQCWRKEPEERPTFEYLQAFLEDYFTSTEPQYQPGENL
Procedure: as §1

[4] = target: T3, TEC (Homo sapiens, UniProt P42680); experiment: Inhibition of a panel of kinases, in vitro HotSpot kinase assay: TEC; conditions: D-compounds panel data; 1 μM ATP
T3 sequence (P42680 1-631): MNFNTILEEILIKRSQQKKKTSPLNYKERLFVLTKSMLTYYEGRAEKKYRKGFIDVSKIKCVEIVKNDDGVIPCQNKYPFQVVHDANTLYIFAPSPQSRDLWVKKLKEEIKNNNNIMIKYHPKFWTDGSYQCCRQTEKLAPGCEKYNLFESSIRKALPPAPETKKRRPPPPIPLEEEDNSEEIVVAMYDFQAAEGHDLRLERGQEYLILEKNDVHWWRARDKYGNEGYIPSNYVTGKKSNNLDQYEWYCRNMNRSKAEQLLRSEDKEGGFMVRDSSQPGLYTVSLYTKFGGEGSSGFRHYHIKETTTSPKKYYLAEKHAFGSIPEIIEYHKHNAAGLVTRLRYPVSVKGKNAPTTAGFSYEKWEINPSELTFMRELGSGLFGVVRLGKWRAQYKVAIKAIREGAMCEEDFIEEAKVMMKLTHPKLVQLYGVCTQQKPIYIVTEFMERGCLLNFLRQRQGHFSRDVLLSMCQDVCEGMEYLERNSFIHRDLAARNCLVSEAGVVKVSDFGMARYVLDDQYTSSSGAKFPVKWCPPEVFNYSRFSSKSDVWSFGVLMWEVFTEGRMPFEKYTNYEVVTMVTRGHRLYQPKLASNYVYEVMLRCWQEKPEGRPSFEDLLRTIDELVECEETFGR
Procedure: as §1

[5] = target: EGFR (Homo sapiens, UniProt P00533); experiment: Inhibition of a panel of kinases, in vitro HotSpot kinase assay: EGFR; conditions: D-compounds panel data; 1 μM ATP
Sequence of EGFR (P00533 25-1210): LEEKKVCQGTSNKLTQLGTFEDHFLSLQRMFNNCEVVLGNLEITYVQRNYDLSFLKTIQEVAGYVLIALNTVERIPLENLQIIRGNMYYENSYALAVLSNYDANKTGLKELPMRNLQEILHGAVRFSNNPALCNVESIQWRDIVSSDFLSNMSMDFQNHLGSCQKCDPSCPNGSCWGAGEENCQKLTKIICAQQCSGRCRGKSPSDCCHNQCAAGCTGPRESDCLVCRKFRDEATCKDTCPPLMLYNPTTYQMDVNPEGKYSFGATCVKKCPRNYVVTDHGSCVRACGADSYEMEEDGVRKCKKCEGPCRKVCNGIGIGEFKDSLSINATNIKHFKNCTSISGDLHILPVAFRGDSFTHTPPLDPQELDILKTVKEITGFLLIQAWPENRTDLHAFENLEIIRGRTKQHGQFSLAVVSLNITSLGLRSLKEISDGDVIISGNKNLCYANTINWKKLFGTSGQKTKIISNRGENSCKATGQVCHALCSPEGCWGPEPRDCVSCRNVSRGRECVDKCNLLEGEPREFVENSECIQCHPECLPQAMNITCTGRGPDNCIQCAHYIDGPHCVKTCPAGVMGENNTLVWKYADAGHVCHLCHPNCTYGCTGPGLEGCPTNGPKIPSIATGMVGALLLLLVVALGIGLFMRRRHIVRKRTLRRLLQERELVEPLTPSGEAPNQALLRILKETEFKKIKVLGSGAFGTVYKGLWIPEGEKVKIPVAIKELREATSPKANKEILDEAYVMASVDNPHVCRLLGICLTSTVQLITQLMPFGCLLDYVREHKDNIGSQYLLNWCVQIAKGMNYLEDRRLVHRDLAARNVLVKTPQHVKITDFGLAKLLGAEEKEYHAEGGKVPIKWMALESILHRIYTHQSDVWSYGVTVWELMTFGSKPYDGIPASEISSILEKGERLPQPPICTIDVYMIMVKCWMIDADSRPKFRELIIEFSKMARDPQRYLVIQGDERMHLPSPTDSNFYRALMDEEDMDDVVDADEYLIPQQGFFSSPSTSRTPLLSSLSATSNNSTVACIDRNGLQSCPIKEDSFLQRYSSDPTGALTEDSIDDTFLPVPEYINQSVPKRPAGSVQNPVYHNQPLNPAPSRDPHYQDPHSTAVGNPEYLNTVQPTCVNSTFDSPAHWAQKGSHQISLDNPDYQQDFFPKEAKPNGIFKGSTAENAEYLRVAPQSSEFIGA
Procedure: as §1

IC50 [1]	IC50 [2]	IC50 [3]	IC50 [4]	IC50 [5]	SMILES
1 to 10 µM	0.1 to 1 µM	1 to 10 µM	> 10 µM	> 10 µM	C[C@@H]1[C@H](NC(=O)N(C)C)CCCN1c1cnc(C(N)=O)c(Nc2ccc(CN3CCN(C)CC3)cc2)c1 [Example D-120, 5-[(2R,3R)-3-[(dimethylcarbamoyl)amino]-2-methylpiperidin-1-yl]-3-({4-[(4-methylpiperazin-1-yl)methyl]phenyl}amino)pyridine-2-carboxamide]
0.1 to 1 µM	≤ 0.01 µM	0.01 to 0.1 µM	0.01 to 0.1 µM	1 to 10 µM	C[C@@H]1[C@H](NC(=O)c2ccc(C3CC3)cc2F)CCCN1c1cnc(C(N)=O)c(Nc2cc(CN(C)C)ns2)n1 [Example D-122, 5-[(2R,3R)-3-(4-cyclopropyl-2-fluorobenzamido)-2-methylpiperidin-1-yl]-3-({3-[(dimethylamino)methyl]-1,2-thiazol-5-yl}amino)pyrazine-2-carboxamide]
0.1 to 1 µM	≤ 0.01 µM	0.1 to 1 µM	0.01 to 0.1 µM	1 to 10 µM	CC(C)n1cc(Nc2nc(N3CCC[C@@H](NC(=O)c4ccc(C5CC5)cc4F)[C@H]3C)cnc2C(N)=O)cn1 [Example D-123, 5-[(2R,3R)-3-(4-cyclopropyl-2-fluorobenzamido)-2-methylpiperidin-1-yl]-3-{[1-(propan-2-yl)-1H-pyrazol-4-yl]amino}pyrazine-2-carboxamide]
> 10 µM	0.01 to 0.1 µM	> 10 µM	1 to 10 µM	> 10 µM	C[C@@H]1[C@H](NC(=O)c2ccc(C3CC3)cc2F)CCCN1c1cnc(C(N)=O)c(Nc2ccc3cccnc3c2)n1 [Example D-124, 5-[(2R,3R)-3-(4-cyclopropyl-2-fluorobenzamido)-2-methylpiperidin-1-yl]-3-[(quinolin-7-yl)amino]pyrazine-2-carboxamide]
1 to 10 µM	≤ 0.01 µM	1 to 10 µM	1 to 10 µM	> 10 µM	C[C@@H]1[C@H](NC(=O)c2ccc(C3CC3)cc2F)CCCN1c1cnc(C(N)=O)c(Nc2ccc(CN3CCN(C)CC3)cc2)c1 [Example D-125, 5-[(2R,3R)-3-(4-cyclopropyl-2-fluorobenzamido)-2-methylpiperidin-1-yl]-3-({4-[(4-methylpiperazin-1-yl)methyl]phenyl}amino)pyridine-2-carboxamide]
1 to 10 µM	0.01 to 0.1 µM	0.1 to 1 µM	1 to 10 µM	> 10 µM	C[C@@H]1[C@H](NC(=O)c2ccc(C3CC3)cc2F)CCCN1c1cnc(C(N)=O)c(Nc2ccc(N3CCN(C)CC3)cc2)c1 [Example D-126, 5-[(2R,3R)-3-(4-cyclopropyl-2-fluorobenzamido)-2-methylpiperidin-1-yl]-3-{[4-(4-methylpiperazin-1-yl)phenyl]amino}pyridine-2-carboxamide]
> 10 µM	0.1 to 1 µM	> 10 µM	> 10 µM	1 to 10 µM	C[C@@H]1[C@H](NC(=O)c2ccc(C3CC3)cc2F)CCCN1c1cnc(C(N)=O)c(Nc2ccn(C)n2)n1 [Example D-129, 5-[(2R,3R)-3-(4-cyclopropyl-2-fluorobenzamido)-2-methylpiperidin-1-yl]-3-[(1-methyl-1H-pyrazol-3-yl)amino]pyrazine-2-carboxamide]
1 to 10 µM	0.01 to 0.1 µM	> 10 µM	1 to 10 µM	> 10 µM	C[C@@H]1[C@H](NC(=O)c2ccc(C3CC3)cc2F)CCCN1c1cnc(C(N)=O)c(Nc2ccc(CN3CCN(C)CC3)cn2)n1 [Example D-132, 5-[(2R,3R)-3-(4-cyclopropyl-2-fluorobenzamido)-2-methylpiperidin-1-yl]-3-({5-[(4-methylpiperazin-1-yl)methyl]pyridin-2-yl}amino)pyrazine-2-carboxamide]
0.1 to 1 µM	≤ 0.01 µM	0.1 to 1 µM	0.1 to 1 µM	1 to 10 µM	C[C@@H]1[C@H](NC(=O)c2ccc(C3CC3)cc2F)CCCN1c1cnc(C(N)=O)c(Nc2ccc(S(C)(=O)=O)cc2)n1 [Example D-133, 5-[(2R,3R)-3-(4-cyclopropyl-2-fluorobenzamido)-2-methylpiperidin-1-yl]-3-[(4-methanesulfonylphenyl)amino]pyrazine-2-carboxamide]

The next lines start with the compound.

SMILES	IC50 [1]	IC50 [2]	IC50 [3]	IC50 [4]	IC50 [5]
C[C@@H]1[C@H](NC(=O)N(C)C)CCCN1c1cnc(C(N)=O)c(Nc2ccc3cccnc3c2)n1 [Example D-121, 5-[(2R,3R)-3-[(dimethylcarbamoyl)amino]-2-methylpiperidin-1-yl]-3-[(quinolin-7-yl)amino]pyrazine-2-carboxamide]	1 to 10 µM	0.01 to 0.1 µM	0.1 to 1 µM	1 to 10 µM	1 to 10 µM
C[C@@H]1[C@H](NC(=O)N(C)C)CCCN1c1cnc(C(N)=O)c(Nc2ccc(N3CCN(C)CC3)cc2)c1 [Example D-127, 5-[(2R,3R)-3-[(dimethylcarbamoyl)amino]-2-methylpiperidin-1-yl]-3-{[4-(4-methylpiperazin-1-yl)phenyl]amino}pyridine-2-carboxamide]	1 to 10 µM	0.1 to 1 µM	1 to 10 µM	1 to 10 µM	> 10 µM
C[C@@H]1[C@H](NC(=O)N(C)C)CCCN1c1cnc(C(N)=O)c(Nc2cnn(C)c2)n1 [Example D-128, 5-[(2R,3R)-3-[(dimethylcarbamoyl)amino]-2-methylpiperidin-1-yl]-3-[(1-methyl-1H-pyrazol-4-yl)amino]pyrazine-2-carboxamide]	0.1 to 1 µM	≤ 0.01 µM	0.1 to 1 µM	0.01 to 0.1 µM	1 to 10 µM
C[C@@H]1[C@H](NC(=O)c2ccc(C3CC3)cc2F)CCCN1c1cnc(C(N)=O)c(Nc2ccc(S(=O)(=O)N3CCN(C)CC3)cc2)n1 [Example D-130, 5-[(2R,3R)-3-(4-cyclopropyl-2-fluorobenzamido)-2-methylpiperidin-1-yl]-3-({4-[(4-methylpiperazin-1-yl)sulfonyl]phenyl}amino)pyrazine-2-carboxamide]	0.1 to 1 µM	≤ 0.01 µM	0.1 to 1 µM	0.1 to 1 µM	1 to 10 µM
Cc1ccc(-c2cnc([C@@H]3CCCN(c4cnc(C(N)=O)c(Nc5cc(C)ns5)n4)[C@@H]3C)[nH]2)cc1 [Example D-131, 3-[(3-methyl-1,2-thiazol-5-yl)amino]-5-[(2R,3R)-2-methyl-3-[5-(4-methylphenyl)-1H-imidazol-2-yl]piperidin-1-yl]pyrazine-2-carboxamide]	1 to 10 µM	0.01 to 0.1 µM	0.1 to 1 µM	0.1 to 1 µM	0.1 to 1 µM
C[C@@H]1[C@H](NC(=O)c2ccc(C3CC3)cc2F)CCCN1c1cnc(C(N)=O)c(Nc2ccc(C3(C)CCN(C4CCC4)CC3)cc2)n1 [Example D-134, 3-{[4-(1-cyclobutyl-4-methylpiperidin-4-yl)phenyl]amino}-5-[(2R,3R)-3-(4-cyclopropyl-2-fluorobenzamido)-2-methylpiperidin-1-yl]pyrazine-2-carboxamide]	0.01 to 0.1 µM	≤ 0.01 µM	0.01 to 0.1 µM	0.01 to 0.1 µM	0.1 to 1 µM
C[C@@H]1[C@H](NC(=O)c2ccc(C3CC3)cc2)CCCN1c1cnc(C(N)=O)c(Nc2cnn(C)c2)n1 [Example D-135, 5-[(2R,3R)-3-(4-cyclopropylbenzamido)-2-methylpiperidin-1-yl]-3-[(1-methyl-1H-pyrazol-4-yl)amino]pyrazine-2-carboxamide]	0.1 to 1 µM	≤ 0.01 µM	0.1 to 1 µM	0.01 to 0.1 µM	1 to 10 µM
